In one test the target is T1, 15N-labelled NDM-1 (Klebsiella pneumoniae, UniProt C7C422).
T1 construct: made in house
In words: 1H,15N HSQC NMR chemical shift perturbation titration, NDM-1. The test is classed as binding. As for the experimental part:
(§1) Solution NMR spectroscopy is a powerful tool to assess protein–ligand interactions under close to physiological conditions.[47] We, therefore, performed NMR chemical shift perturbation (CSP, for details, see section S8, ESI ^†) experiments to identify the amino acid residues of NDM-1 and VIM-2 that are involved in inhibitor binding, making use of the previously published protein assignments.[48,49] Titrations were conducted using ^15N-labelled proteins with 0, 0.5, 1, 2, 4, 8, and 16 equiv. of 5 inhibitors for NDM-1 and of 7 inhibitors for VIM-2.
(§2) For the titrations, ^15N-labelled NDM-1 and ^15N-labelled VIM-2 (250 μM), and titrated ligands (0.5 equiv. in 1 μL) were prepared in the same buffer as the protein (20 mM KPO4, 0.1 mM ZnCl2, pH 7.0 with 10% D2O and 2.5% DMSO-d6). ^1H,^15N HSQC spectra were acquired with 128 × 1024 complex points (F1 × F2) and spectral width of 9090 × 2740 Hz on ^15N-labeled NDM-1/VIM-2 and with every titration step up to 1 : 16 ratio between protein : ligand (0, 0.5, 1, 2, 4, 8, and 16 equiv. of ligand). All experiments were recorded on a Bruker 600 MHz spectrometer at 310 K equipped with a 5 mm TCI cryogenic probe. The NMR data were processed on the MestReNova software with the Mnova Binding plugin. The weighted average chemical shift perturbations (CSP) for the backbone amides were calculated from the observed chemical shift differences in the proton and nitrogen dimensions using the equation (chemical shift scaling factors: FH = 1, FN = 0.156) CSP = Δδ1H,15N = [drawing 13] .
(§3) 7. Chemical shift perturbation histograms
(§4) Chemical shift perturbation was calculated according equation (1) 2
(§5) CSP = Δδ(1H,15N) = √(Δδ1H2 + (1⁄R × Δδ15N2) Rscale = 6.5 (1)
(§6) Where Δδ1H is the chemical shift change for proton dimension, Δδ15N is the chemical shift change for nitrogen dimension, Rscale is a
(§7) The chemical shift perturbations (CSP) were classified as significant (SSP) when the observed Δδ(1H,15N) was greater than the population
(§8) mean plus the standard deviation (µ+1σ) – solid line; (µ+2σ) – dashed line, and (µ+3σ) – dashed line.
(§9) Further on, Kd was calculated according: 3
(§10) ([P]+[L]+Kd)− √([P]+[L]+Kd)2−4[P][L]
(§11) ΔδmaxΔδobs = Δδmax 2[P] (2)
(§12) Where Kd is the dissociation constant, [P] and [L] are protein and ligand concentrations, respectively. Δδmax were estimated in
(§13) MestReNova by extrapolation of the obser ved chemical shift differences Δδobs.

A further test concerns the target T2, VIM-2 (Escherichia coli, UniProt Q5U7L7).
T2 construct: made in house
As to the kind of experiment: Dose rate inhibition studies for IC50 determination, VIM-2 enzymatic assay. The test is classed as biochemical. The note with it: inhibitor 0-800 μM, 3 parallel measurements, N.I. = no enzyme inhibitory activity observed; for IC50: Enzyme IC50 VIM-2, 0.1 nM VIM-2, 100 μM ZnCl2, nitrocefin substrate. As for the experimental part:
(§14) The […] synthesized compounds 5a–l were tested for their inhibitory activities against NDM-1, VIM-2 (Table 1), and GIM-1 in an in vitro enzymatic assay (ESI ^†).[41] The inhibitory activity was measured using enzyme concentrations of 0.1 nM VIM-2, 10 nM NDM-1 or 1 nM GIM-1, with an excess Zn(II) (100 μM, see Experimental methods), with inhibitor compounds with concentrations from 0 to 800 μM. Each data point was measured in triplicates. […] This is in line with previous reports.[42,43]
(§15) A 100 μl solution with buffer (50 mM HEPES (pH 7.2), 100 μM ZnCl2, 2.5% DMSO), purified enzyme (0.1 nM VIM-2, 10 nM NDM-1 or 1 nM GIM-1) and 800–0 μM inhibitor was incubated in a 96 well plate at 25 °C for 5 min. In addition, the enzyme buffer contained 400 μg ml^−1 bovine serum albumin (BSA) to prevent protein unfolding and loss of activity due to low concentrations.[67,68] 100 μM of the reporter substrate nitrocefin (VIM-2, GIM-1) or imipenem (NDM-1) was added to the enzyme–inhibitor solution and the increase in absorbance at 482 nm (nitrocefin) or 300 nm (imipenem) was recorded on a Spectramax M4 spectrophotometer (Molecular Devices). Each data point was performed in triplicates and the initial velocity for each inhibitor concentration was analyzed by a log [inhibitor] vs. response curve fitting to calculate IC50 in GraphPad Prism 9.2 software.

Another test concerns the target T3, NDM-1 (Klebsiella pneumoniae, UniProt C7C422).
T3 construct: made in house
As to the kind of experiment: Dose rate inhibition studies for IC50 determination, NDM-1 enzymatic assay. The note with it: inhibitor 0-800 μM, 3 parallel measurements, N.I. = no enzyme inhibitory activity observed; for IC50: Enzyme IC50 NDM-1, 10 nM NDM-1, 100 μM ZnCl2, imipenem substrate. The test is classed as biochemical. The protocol:
as §14, §15

A further test addresses T4, 15N-labelled VIM-2 (Escherichia coli, UniProt Q5U7L7).
T4 construct: made in house
In words: 1H,15N HSQC NMR chemical shift perturbation titration, VIM-2. The test is classed as binding. Conditions: VIM-2 Kd, 0-16 equiv. ligand, pH 7.0, 310 K. The protocol: as §1, §2, §3, §4, §5, §6, §7, §8, §9, §10, §11, §12, §13

Where [1] appears, read: Estimated binding constant (Kd), residue 119T, Table S5, per-residue fit, NDM-1 119T.
[2] abbreviates: Estimated binding constant (Kd), residue 124D, Table S5, per-residue fit, NDM-1 124D.
Setting [3] is: Estimated binding constant (Kd), residue 127G, Table S5, per-residue fit, NDM-1 127G.
The mark [4] stands for this setting: Estimated binding constant (Kd), residue 159H, Table S5, per-residue fit, NDM-1 159H.
The mark [5] stands for this setting: Estimated binding constant (Kd), residue 160S, Table S5, per-residue fit, NDM-1 160S.
[6] abbreviates: Estimated binding constant (Kd), residue 188G, Table S5, per-residue fit, NDM-1 188G.
[7] abbreviates: Estimated binding constant (Kd), residue 191S, Table S5, per-residue fit, NDM-1 191S.
Setting [8] is: Estimated binding constant (Kd), residue 194I, Table S5, per-residue fit, NDM-1 194I.
The mark [9] stands for this setting: Estimated binding constant (Kd), residue 197G, Table S5, per-residue fit, NDM-1 197G.
Where [10] appears, read: Estimated binding constant (Kd), residue 205F, Table S5, per-residue fit, NDM-1 205F.
Setting [11] is: Estimated binding constant (Kd), residue 211K, Table S5, per-residue fit, NDM-1 211K.
Where [12] appears, read: Estimated binding constant (Kd), residue 214K, Table S5, per-residue fit, NDM-1 214K.
Setting [13] is: Estimated binding constant (Kd), residue 217S, Table S5, per-residue fit, NDM-1 217S.
Setting [14] is: Estimated binding constant (Kd), residue 228H, Table S5, per-residue fit, NDM-1 228H.
Setting [15] is: Estimated binding constant (Kd), residue 229Y, Table S5, per-residue fit, NDM-1 229Y.
Setting [16] is: Estimated binding constant (Kd), residue 230A, Table S5, per-residue fit, NDM-1 230A.
The mark [17] stands for this setting: Estimated binding constant (Kd), residue 248M, Table S5, per-residue fit, NDM-1 248M.
[18] abbreviates: Estimated binding constant (Kd), residue 251S, Table S5, per-residue fit, NDM-1 251S.
Setting [19] is: Estimated binding constant (Kd), residue 252A, Table S5, per-residue fit, NDM-1 252A.
Where [20] appears, read: Estimated binding constant (Kd), residue 254D, Table S5, per-residue fit, NDM-1 254D.
Where [21] appears, read: Estimated binding constant (Kd), residue 255S, Table S5, per-residue fit, NDM-1 255S.
[22] abbreviates: NDM-1 Kd, NMR chemical shift perturbation, 0-16 equiv. ligand, pH 7.0, 310 K.

Results on 3 compounds are retold here after PMC10650955, “α-Aminophosphonate inhibitors of metallo-β-lactamases NDM-1 and VIM-2” (RSC Medicinal Chemistry, 2023).

Where a name gives a salt, the structure may show the parent alone.

T3 sequence (C7C422 29-270 limits assumed): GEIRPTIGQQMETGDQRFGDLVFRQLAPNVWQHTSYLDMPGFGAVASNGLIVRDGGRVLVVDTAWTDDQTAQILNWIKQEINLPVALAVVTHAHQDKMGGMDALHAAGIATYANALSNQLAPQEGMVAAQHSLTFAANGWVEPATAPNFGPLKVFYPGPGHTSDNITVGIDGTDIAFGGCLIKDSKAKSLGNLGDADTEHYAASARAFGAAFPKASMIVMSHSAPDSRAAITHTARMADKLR
T1 sequence (C7C422 29-270 limits assumed): as above

Regarding `O=C(NC(C1CCCCN1)P(=O)(O)O)c1cccs1` (stereo not drawn) [Compound 5b-1, (Piperidin-2-yl(thiophene-2-carboxamido)methyl)phos-phonic acid hydrochloride], the Kd (commonly the free concentration of one partner at which half of the binding sites on the other are occupied at equilibrium, for simple one-to-one binding) at 15N-labelled NDM-1 (Estimated binding constant (Kd), residue 070F, Table S5, per-residue fit, NDM-1 070F) was 2.92 mM; at 15N-labelled NDM-1 (Estimated binding constant (Kd), residue 091T, Table S5, per-residue fit, NDM-1 091T) it was 5.76 mM; on 15N-labelled NDM-1 (Estimated binding constant (Kd), residue 108E, Table S5, per-residue fit, NDM-1 108E) it was 6.63 mM; at 15N-labelled NDM-1 (setting [1]), 18.1 mM; at 15N-labelled NDM-1 (setting [2]), 3.17 mM; on 15N-labelled NDM-1 (setting [3]) it was 8.34 mM. Further, the Kd on 15N-labelled NDM-1 (Estimated binding constant (Kd), residue 149A, Table S5, per-residue fit, NDM-1 149A) is 1.71 mM; at 15N-labelled NDM-1 (Estimated binding constant (Kd), residue 152E, Table S5, per-residue fit, NDM-1 152E), 3.52 mM; at 15N-labelled NDM-1 (setting [4]), 21.5 mM; on 15N-labelled NDM-1 (setting [5]), 8.97 mM; on 15N-labelled NDM-1 (setting [6]), 3.4 mM; on 15N-labelled NDM-1 (setting [7]), 0.85 mM. The Kd is 2.93 mM on 15N-labelled NDM-1 (setting [8]); 10.4 mM on 15N-labelled NDM-1 (setting [9]); 11 mM on 15N-labelled NDM-1 (setting [10]); 3.49 mM at 15N-labelled NDM-1 (setting [11]); 1.36 mM at 15N-labelled NDM-1 (setting [12]); 10.5 mM at 15N-labelled NDM-1 (setting [13]). Besides, the Kd on 15N-labelled NDM-1 (setting [14]) is 11 mM; at 15N-labelled NDM-1 (setting [15]), 2.24 mM; at 15N-labelled NDM-1 (setting [16]) it was 4.33 mM; on 15N-labelled NDM-1 (Estimated binding constant (Kd), residue 232S, Table S5, per-residue fit, NDM-1 232S), 12.1 mM; at 15N-labelled NDM-1 (setting [17]), 12.9 mM; on 15N-labelled NDM-1 (setting [18]) it was 6.07 mM. In addition, the dissociation constant Kd on 15N-labelled NDM-1 (setting [19]) is 3.48 mM; at 15N-labelled NDM-1 (setting [20]), 9.74 mM; at 15N-labelled NDM-1 (setting [21]) it was 7.37 mM; on 15N-labelled NDM-1 (setting [22]) it was 2 ± 0.1 mM; on 15N-labelled VIM-2, 0.4 ± 0.04 mM. The half-maximal inhibitory concentration (IC50) (usually the concentration at which inhibition is half-maximal) came to 0.118 ± 0.06 mM against VIM-2 and 0.23 ± 0.028 mM against NDM-1.
As to `O=C(Cc1cccs1)NC(C1CCCCN1)P(=O)(O)O` (stereo not drawn) [Compound 5i-1, (Piperidin-2-yl(2-(thiophen-2-yl)acetamido)methyl)phos-phonic acid hydrochloride], the Kd at 15N-labelled NDM-1 (setting [1]) was 0.93 mM; on 15N-labelled NDM-1 (setting [2]), 3.53 mM; at 15N-labelled NDM-1 (setting [3]), 8.94 mM; at 15N-labelled NDM-1 (setting [4]) it was 2.47 mM; on 15N-labelled NDM-1 (setting [5]), 0.25 mM; at 15N-labelled NDM-1 (setting [6]) it was 0.49 mM. For the same compound, the Kd at 15N-labelled NDM-1 (setting [7]) is 0.12 mM; at 15N-labelled NDM-1 (setting [8]), 4.99 mM; on 15N-labelled NDM-1 (setting [9]) it was 1.27 mM; at 15N-labelled NDM-1 (setting [10]) it was 2.3 mM; on 15N-labelled NDM-1 (setting [11]) it was 0.14 mM; at 15N-labelled NDM-1 (Estimated binding constant (Kd), residue 213S, Table S5, per-residue fit, NDM-1 213S) it was 0.39 mM. Besides, the dissociation constant (Kd) is 0.57 mM on 15N-labelled NDM-1 (setting [12]); 3.06 mM on 15N-labelled NDM-1 (setting [13]); 3.08 mM at 15N-labelled NDM-1 (setting [14]); 0.34 mM on 15N-labelled NDM-1 (setting [15]); 0.18 mM at 15N-labelled NDM-1 (setting [16]); 0.78 mM at 15N-labelled NDM-1 (setting [17]). Moreover, the Kd at 15N-labelled NDM-1 (setting [18]) is 1.82 mM; at 15N-labelled NDM-1 (setting [19]), 0.48 mM; on 15N-labelled NDM-1 (setting [20]), 7.53 mM; on 15N-labelled NDM-1 (setting [21]), 9.91 mM; at 15N-labelled NDM-1 (setting [22]), 0.5 ± 0.1 mM; on 15N-labelled VIM-2, 1.5 ± 0.2 mM. In addition, at VIM-2 (0.1 nM VIM-2, 100 μM ZnCl2, nitrocefin substrate), the “Enzyme IC50 VIM-2” value is on record as “N.I”. Besides, it took 0.296 ± 0.087 mM to reach half-maximal inhibition against NDM-1 (IC50).
`Cc1[nH]c(=S)sc1CC(=O)NC(C1CCCCN1)P(=O)(O)O` (stereo not drawn) [Compound 5a-1, ((2-(4-Methyl-2-thioxo-2,3-dihydrothiazol-5-yl)acet-amido)(piperidin-2-yl)methyl)phosphonic acid hydro-chloride] yielded an IC50 against VIM-2 of 0.353 ± 0.062 mM. Also, at NDM-1 (10 nM NDM-1, 100 μM ZnCl2, imipenem substrate), the “Enzyme IC50 NDM-1” value was “N.I. ^b”. At 15N-labelled VIM-2, the Kd is 0.9 ± 0.1 mM.
